From ChEMBL document CHEMBL4673372, “1,2,3-triazole-thiazole hybrids: Synthesis, in vitro antimicrobial activity and antibiofilm studies” (Bioorg Med Chem Lett, 2021)
≈ marks a conversion by molar mass, not a printed value.

What was measured:
[1] = system: Escherichia coli; experiment: Inhibition of biofilm formation in Escherichia coli MTCC 739 incubated for 24 hrs by crystal violet staining based microtiter plate method; type: functional, organism-based; details: Escherichia coli, MTCC 739, 24 h; read-out: IC50
[2] = system: Candida parapsilosis; experiment: Antifungal activity against Candida parapsilosis MTCC 1745; type: functional; details: Lodderomyces parapsilosis
[3] = system: Escherichia coli; experiment: Antibacterial activity against Escherichia coli MTCC 739 assessed as inhibition of bacterial growth by microtiter broth dilution method; type: functional
[4] = system: Candida albicans; experiment: Antifungal activity against Candida albicans MTCC 3958; type: functional
[5] = system: Micrococcus luteus; experiment: Bactericidal activity against Micrococcus luteus MTCC 2470; type: functional
[6] = system: Pseudomonas aeruginosa; experiment: Inhibition of biofilm formation in Pseudomonas aeruginosa MTCC 2453 incubated for 24 hrs by crystal violet staining based microtiter plate method; type: functional, organism-based; details: Pseudomonas aeruginosa, MTCC 2453, 24 h; read-out: IC50
[7] = system: [Candida] aaseri; experiment: Antifungal activity against Candida aaseri MTCC 1962; type: functional; details: Yamadazyma aaseri
[8] = system: Pichia kudriavzevii; experiment: Antifungal activity against Candida krusei MTCC 3020; type: functional
[9] = system: Micrococcus luteus; experiment: Antibacterial activity against Micrococcus luteus MTCC 2470 assessed as inhibition of bacterial growth by microtiter broth dilution method; type: functional
[10] = system: Candida albicans; experiment: Antifungal activity against Candida albicans MTCC 854; type: functional
[11] = system: Staphylococcus aureus; experiment: Inhibition of biofilm formation in Staphylococcus aureus […] incubated for 24 hrs by crystal violet staining based microtiter plate method; type: functional, organism-based; details: Staphylococcus aureus, MTCC 92, 24 h; read-out: IC50
[12] = system: Candida albicans; experiment: Antifungal activity against Candida albicans MTCC 4748; type: functional
[13] = system: Pseudomonas aeruginosa; experiment: Antibacterial activity against Pseudomonas aeruginosa MTCC 2453 assessed as inhibition of bacterial growth by microtiter broth dilution method; type: functional
[14] = system: Raoultella planticola; experiment: Inhibition of biofilm formation in Klebsiella planticola MTCC 530 incubated for 24 hrs by crystal violet staining based microtiter plate method; type: functional, organism-based; details: Klebsiella planticola, MTCC 530, 24 h; read-out: IC50
[15] = system: Raoultella planticola; experiment: Antibacterial activity against Klebsiella planticola MTCC 530 assessed as inhibition of bacterial growth by microtiter broth dilution method; type: functional
[16] = Cytotoxicity against human THP-1 cells; type: cell-based
[17] = system: Bacillus subtilis; experiment: Bactericidal activity against Bacillus subtilis MTCC 121; type: functional
[18] = system: Candida albicans; experiment: Antifungal activity against Candida albicans MTCC 1637; type: functional
[19] = system: Nakaseomyces glabratus; experiment: Antifungal activity against Candida glabrata MTCC 3019; type: functional
[20] = Selectivity index, ratio of CC50 for human THP-1 cells to MIC for Staphylococcus aureus MTCC 96; type: toxicity
[21] = system: Raoultella planticola; experiment: Bactericidal activity against Klebsiella planticola MTCC 530; type: functional
[22] = system: Staphylococcus aureus; experiment: Bactericidal activity against Staphylococcus aureus MTCC 96; type: functional
[23] = system: THP-1; experiment: Cytotoxicity against human THP-1 cells assessed as reduction in cell viability at 200 uM by MTT assay; type: cell-based; details: thp-1, 200 µM
[24] = system: Candida albicans; experiment: Antifungal activity against Candida albicans MTCC 3018; type: functional
[25] = system: Pichia sporocuriosa; experiment: Fungicidal activity against Issatchenkia hanoiensis MTCC 4755; type: functional
[26] = system: Bacillus subtilis; experiment: Antibacterial activity against Bacillus subtilis MTCC 121 assessed as inhibition of bacterial growth by microtiter broth dilution method; type: functional
[27] = system: Candida albicans; experiment: Inhibition of biofilm formation in Candida albicans MTCC 3017 incubated for 24 hrs by crystal violet staining based microtiter plate method; type: functional, organism-based
[28] = system: Escherichia coli; experiment: Bactericidal activity against Escherichia coli MTCC 739; type: functional
[29] = system: Staphylococcus aureus; experiment: Antibacterial activity against Staphylococcus aureus MTCC 96 assessed as inhibition of bacterial growth by microtiter broth dilution method; type: functional
[30] = system: Candida albicans; experiment: Fungicidal activity against Candida albicans MTCC 854; type: functional
[31] = system: THP-1; experiment: Cytotoxicity against human THP-1 cells assessed as cell damage at 200 uM by LDH assay; type: cell-based; details: thp-1, 200 µM
[32] = system: Micrococcus luteus; experiment: Inhibition of biofilm formation in Micrococcus luteus MTCC 2470 incubated for 24 hrs by crystal violet staining based microtiter plate method; type: functional, organism-based; details: Micrococcus luteus, MTCC 2470, 24 h; read-out: IC50
[33] = system: Candida albicans; experiment: Antifungal activity against Candida albicans MTCC 183; type: functional
[34] = system: Pseudomonas aeruginosa; experiment: Bactericidal activity against Pseudomonas aeruginosa MTCC 2453; type: functional
[35] = system: Candida albicans; experiment: Fungicidal activity against Candida albicans MTCC 183; type: functional
[36] = system: Bacillus subtilis; experiment: Inhibition of biofilm formation in Bacillus subtilis MTCC 121 incubated for 24 hrs by crystal violet staining based microtiter plate method; type: functional, organism-based; details: Bacillus subtilis, MTCC 121, 24 h; read-out: IC50
[37] = system: Staphylococcus aureus; experiment: Inhibition of biofilm formation in Staphylococcus aureus MLS16 MTCC 2940 incubated for 24 hrs by crystal violet staining based microtiter plate method; type: functional, organism-based
[38] = system: Staphylococcus aureus; experiment: Antibacterial activity against Staphylococcus aureus MLS16 MTCC 2940 assessed as inhibition of bacterial growth by microtiter broth dilution method; type: functional
[39] = system: Candida albicans; experiment: Antifungal activity against Candida albicans MTCC 227; type: functional
[40] = system: Pichia sporocuriosa; experiment: Antifungal activity against Issatchenkia hanoiensis MTCC 4755; type: functional
[41] = system: Candida albicans; experiment: Fungicidal activity against Candida albicans MTCC 3018; type: functional
[42] = system: Nakaseomyces glabratus; experiment: Fungicidal activity against Candida glabrata MTCC 3019; type: functional
[43] = system: [Candida] aaseri; experiment: Fungicidal activity against Candida aaseri MTCC 1962; type: functional; details: Yamadazyma aaseri
[44] = system: Staphylococcus aureus; experiment: Bactericidal activity against Staphylococcus aureus MLS16 MTCC 2940; type: functional
[45] = system: Candida albicans; experiment: Fungicidal activity against Candida albicans MTCC 1637; type: functional
[46] = Candida albicans, MTCC 3017, 24 h, read-out: IC50

Compound: COc1ccc(-n2cc(COc3ccc(/C=N/Nc4nc(-c5cc6c(ccc7ccccc76)oc5=O)cs4)cc3)nn2)cc1
- IC50 [1]: 127 µM
- MIC [2]: > 208 µM
- MIC [3]: 6.5 µM (≈ 3.9 µg/mL)
- MIC [4]: > 208 µM
- MBC [5]: 25.9 µM (≈ 15.6 µg/mL)
- IC50 [6]: 30.4 µM
- MIC [7]: > 208 µM
- MIC [8]: > 208 µM
- MIC [9]: 12.9 µM (≈ 7.75 µg/mL)
- MIC [10]: 6.5 µM (≈ 3.9 µg/mL)
- IC50 [11]: 30.1 µM
- MIC [12]: > 208 µM
- MIC [13]: 12.9 µM (≈ 7.75 µg/mL)
- IC50 [14]: 59.7 µM
- MIC [15]: 3.1 µM (≈ 1.86 µg/mL)
- CC50 [16]: 33.3 µM
- MBC [17]: 12.9 µM (≈ 7.75 µg/mL)
- MIC [18]: > 208 µM
- MIC [19]: > 208 µM
- selectivity ratio [20]: 5.12
- MBC [21]: 12.9 µM (≈ 7.75 µg/mL)
- MBC [22]: 21.4 µM (≈ 12.9 µg/mL)
- Activity [23]: Toxic
- MIC [24]: > 208 µM
- MFC [25]: 13 µM (≈ 7.81 µg/mL)
- MIC [26]: 6.5 µM (≈ 3.9 µg/mL)
- IC50 [27, 46]: 45.6 µM
- MBC [28]: 25.9 µM (≈ 15.6 µg/mL)
- MIC [29]: 6.5 µM (≈ 3.9 µg/mL)
- MFC [30]: 13 µM (≈ 7.81 µg/mL)
- Activity [31]: Toxic
- IC50 [32]: 40.2 µM
- MIC [33]: 13 µM (≈ 7.81 µg/mL)
- MBC [34]: 51.9 µM (≈ 31.2 µg/mL)
- MFC [35]: 51.9 µM (≈ 31.2 µg/mL)
- IC50 [36]: 37.5 µM
- IC50 ([37]; Staphylococcus aureus, MLS16 MTCC 2940, 24 h, read-out: IC50): 51.1 µM
- MIC [38]: > 208 µM
- MIC [39]: > 208 µM
- MIC [40]: 6.5 µM (≈ 3.9 µg/mL)

Compound: COc1ccc(-n2cc(COc3ccc(/C=N/Nc4nc(-c5cc6cc(Br)cc(OC)c6oc5=O)cs4)cc3)nn2)cc1
- IC50 [1]: 21.9 µM
- MIC [2]: > 190 µM
- MIC [3]: 5.9 µM (≈ 3.89 µg/mL)
- MFC [41]: 11.8 µM (≈ 7.78 µg/mL)
- MIC [4]: > 190 µM
- MBC [5]: 11.8 µM (≈ 7.78 µg/mL)
- IC50 [6]: 24.7 µM
- MIC [7]: 5.9 µM (≈ 3.89 µg/mL)
- MIC [8]: > 190 µM
- MIC [9]: 5.9 µM (≈ 3.89 µg/mL)
- MIC [10]: > 190 µM
- IC50 [11]: 12 µM
- MIC [12]: > 190 µM
- MIC [13]: 5.9 µM (≈ 3.89 µg/mL)
- IC50 [14]: 22.2 µM
- MIC [15]: 2.8 µM (≈ 1.85 µg/mL)
- CC50 [16]: 30.3 µM
- MBC [17]: 11.8 µM (≈ 7.78 µg/mL)
- MIC [18]: 5.9 µM (≈ 3.89 µg/mL)
- MIC [19]: 5.9 µM (≈ 3.89 µg/mL)
- selectivity ratio [20]: 5.14
- MBC [21]: 5.9 µM (≈ 3.89 µg/mL)
- MBC [22]: 11.8 µM (≈ 7.78 µg/mL)
- Activity [23]: Toxic
- MIC [24]: 5.9 µM (≈ 3.89 µg/mL)
- MIC [26]: 5.9 µM (≈ 3.89 µg/mL)
- IC50 [27, 46]: 40.6 µM
- MFC [42]: 11.8 µM (≈ 7.78 µg/mL)
- MBC [28]: 11.8 µM (≈ 7.78 µg/mL)
- MIC [29]: 5.9 µM (≈ 3.89 µg/mL)
- Activity [31]: Toxic
- IC50 [32]: 47.8 µM
- MIC [33]: 11.8 µM (≈ 7.78 µg/mL)
- MBC [34]: 11.8 µM (≈ 7.78 µg/mL)
- MFC [43]: 11.8 µM (≈ 7.78 µg/mL)
- MFC [35]: 23.7 µM (≈ 15.6 µg/mL)
- IC50 [36]: 15.9 µM
- IC50 [37]: Not Active
- MIC [38]: 5.9 µM (≈ 3.89 µg/mL)
- MIC [39]: > 190 µM
- MBC [44]: 11.8 µM (≈ 7.78 µg/mL)
- MFC [45]: 11.8 µM (≈ 7.78 µg/mL)
- MIC [40]: > 190 µM

Compound: O=C(O)c1cn(C2CC2)c2cc(N3CCNCC3)c(F)cc2c1=O [CIPROFLOXACIN]
- IC50 [1]: 0.6 µM
- MIC [3]: 2.7 µM (≈ 0.895 µg/mL)
- MBC [5]: 2.7 µM (≈ 0.895 µg/mL)
- IC50 [6]: 0.5 µM
- MIC [9]: 2.7 µM (≈ 0.895 µg/mL)
- MIC [13]: 2.7 µM (≈ 0.895 µg/mL)
- IC50 [14]: 0.8 µM
- MIC [15]: 2.7 µM (≈ 0.895 µg/mL)
- MBC [17]: 2.7 µM (≈ 0.895 µg/mL)
- MBC [21]: 2.7 µM (≈ 0.895 µg/mL)
- MBC [22]: 2.7 µM (≈ 0.895 µg/mL)
- MIC [26]: 2.7 µM (≈ 0.895 µg/mL)
- IC50 [27]: Not Active
- MBC [28]: 2.7 µM (≈ 0.895 µg/mL)
- MIC [29]: 2.7 µM (≈ 0.895 µg/mL)
- MBC [34]: 2.7 µM (≈ 0.895 µg/mL)
- MIC [38]: 2.7 µM (≈ 0.895 µg/mL)
- MBC [44]: 2.7 µM (≈ 0.895 µg/mL)
